Results published in patent US20090098130A1, “GLUCAGON-LIKE PROTEIN-1 RECEPTOR (GLP-1R) AGONIST COMPOUNDS” (priority 2007, published 2009).
Non-standard residues stand in square brackets, D forms with d. Residues, ends and D or L forms follow the SMILES beside them. Aib = CC(C)(N)C(=O)O

Test system: pancreatic β cells
Assay: glucose-stimulated insulin secretion (GSIS) assay
Format: cell-based
Procedure: Briefly, glucose and GA targeting peptide was added at various concentrations to pancreatic β cell cultures, and insulin secretion was detected by measuring insulin levels over time. EC50 was calculated for each peptide.
The ability of these GA targeting agent-linker conjugates to stimulate […] secretion in vitro was measured using the GSIS assay described in Example 27. […] Each of these peptides contained a side-chain modified Lys residue according to the scheme illustrated in FIG. 30 at a different position.

[1] = GA targeting peptide, insulin secretion from pancreatic β cell cultures in vitro with glucose

| SMILES | EC50 (GA targeting agent-linker conjugate, GSIS assay in vitro) [µM] | EC50 [1] [µM] |
| --- | --- | --- |
| CC/C=C/CC(=O)N[C@@H](Cc1c[nH]cn1)C(=O)NC(C)(C)C(=O)N[C@@H](CCC(=O)O)C(=O)NCC(=O)N[C@H](C(=O)N[C@@H](Cc1ccccc1)C(=O)N[C@H](C(=O)N[C@@H](CO)C(=O)N[C@@H](CC(=O)O)C(=O)N[C@H](C(=O)N[C@@H](CO)C(=O)N[C@@H](CO)C(=O)N[C@@H](Cc1ccc(O)cc1)C(=O)N[C@@H](CC(C)C)C(=O)N[C@@H](CCC(=O)O)C(=O)N[C@@H](CCC(=O)O)C(=O)N[C@@H](CCC(N)=O)C(=O)N[C@@H](C)C(=O)N[C@H](C(=O)N[C@@H](CCCCN)C(=O)N[C@@H](CCC(=O)O)C(=O)N[C@@H](Cc1ccccc1)C(=O)N[C@H](C(=O)N[C@@H](C)C(=O)N[C@@H](Cc1c[nH]c2ccccc12)C(=O)N[C@@H](CC(C)C)C(=O)N[C@H](C(=O)N[C@@H](CCCCN)C(=O)NC(C)(C)C(=O)N[C@@H](CCCNC(=N)N)C(N)=O)[C@@H](C)CC)[C@@H](C)CC)C(C)C)C(C)C)[C@@H](C)O)[C@@H](C)O | < 10 | – |
| CC[C@H](C)[C@H](NC(=O)[C@H](Cc1ccccc1)NC(=O)[C@H](CCC(=O)O)NC(=O)[C@H](CCCCN)NC(=O)[C@H](C)NC(=O)[C@H](C)NC(=O)[C@H](CCC(N)=O)NC(=O)CNC(=O)[C@H](CCC(=O)O)NC(=O)[C@H](CC(C)C)NC(=O)[C@H](Cc1ccc(O)cc1)NC(=O)[C@H](CO)NC(=O)[C@H](CO)NC(=O)[C@@H](NC(=O)[C@H](CC(=O)O)NC(=O)[C@H](CO)NC(=O)[C@@H](NC(=O)[C@H](Cc1ccccc1)NC(=O)[C@@H](NC(=O)CNC(=O)[C@H](CCC(=O)O)NC(=O)C(C)(C)NC(=O)[C@@H](N)Cc1c[nH]cn1)[C@@H](C)O)[C@@H](C)O)C(C)C)C(=O)N[C@@H](C)C(=O)N[C@@H](Cc1ccccc1)C(=O)N[C@@H](CC(C)C)C(=O)N[C@H](C(=O)N[C@@H](CCCCN)C(=O)NC(C)(C)C(=O)N[C@@H](CCCNC(=N)N)C(N)=O)C(C)C [SEQ ID NO: 53] | – | < 10 |
| CC[C@H](C)[C@H](NC(=O)[C@H](Cc1ccccc1)NC(=O)[C@H](CCC(=O)O)NC(=O)[C@H](CCCCN)NC(=O)[C@@H](NC(=O)[C@H](C)NC(=O)[C@H](CCC(N)=O)NC(=O)[C@H](CCC(=O)O)NC(=O)[C@H](CCC(=O)O)NC(=O)[C@H](Cc1ccccc1)NC(=O)[C@H](Cc1ccc(O)cc1)NC(=O)[C@H](CO)NC(=O)[C@H](CO)NC(=O)[C@@H](NC(=O)[C@H](CC(=O)O)NC(=O)[C@H](CO)NC(=O)[C@@H](NC(=O)[C@H](Cc1ccccc1)NC(=O)[C@@H](NC(=O)CNC(=O)[C@H](CCC(=O)O)NC(=O)C(C)(C)NC(=O)[C@@H](N)Cc1c[nH]cn1)[C@@H](C)O)[C@@H](C)O)C(C)C)C(C)C)C(=O)N[C@@H](C)C(=O)N[C@@H](Cc1c[nH]c2ccccc12)C(=O)N[C@@H](CC(C)C)C(=O)N[C@H](C(=O)N[C@@H](CCCCN)C(=O)NC(C)(C)C(=O)N[C@@H](CCCNC(=N)N)C(N)=O)[C@@H](C)CC [SEQ ID NO: 58] (H-H[Aib]EGTFTSDVSSYFEEQAVKEFIAWLIK[Aib]R-NH2) | – | < 10 |
| CC[C@H](C)[C@H](NC(=O)[C@H](Cc1ccccc1)NC(=O)[C@H](CCC(=O)O)NC(=O)[C@H](CCCCN)NC(=O)[C@H](CC(C)C)NC(=O)[C@H](C)NC(=O)[C@H](CCC(N)=O)NC(=O)CNC(=O)[C@H](CCC(=O)O)NC(=O)[C@H](CC(C)C)NC(=O)[C@H](Cc1ccc(O)cc1)NC(=O)[C@H](CO)NC(=O)[C@H](CO)NC(=O)[C@@H](NC(=O)[C@H](CC(=O)O)NC(=O)[C@H](CO)NC(=O)[C@@H](NC(=O)[C@H](Cc1ccccc1)NC(=O)[C@@H](NC(=O)CNC(=O)[C@H](CCC(=O)O)NC(=O)C(C)(C)NC(=O)[C@@H](N)Cc1c[nH]cn1)[C@@H](C)O)[C@@H](C)O)C(C)C)C(=O)N[C@@H](C)C(=O)N[C@@H](Cc1c[nH]c2ccccc12)C(=O)N[C@@H](CC(C)C)C(=O)N[C@H](C(=O)N[C@@H](CCCCN)C(=O)NC(C)(C)C(=O)N[C@@H](CCCNC(=N)N)C(N)=O)C(C)C [SEQ ID NO: 50] (H-H[Aib]EGTFTSDVSSYLEGQALKEFIAWLVK[Aib]R-NH2) | – | < 10 |
